These are literature values, as cited in US6623768B1, “Pharmaceutically active composition extracted from Ferula hermonis and process of its extraction” (priority 2002, dated 2003).

The subject of the data set is adult female rats.

For `COc1cc(C(=O)O[C@H]2CC(C)=CC[C@@]3(C)CC[C@@](O)(C(C)C)[C@H]23)ccc1O` [jaeschkeanadiol vanillate], the prevention of pregnancy entry (administered orally on 1 to 7 post coitum, adult female rats) is listed as “prevent pregnancy”. Besides, the “prevention of pregnancy after single dose” value (single oral administration of 5 mg per kg on the first day of post coitum, rats) is listed as “prevented pregnancy”.
